We go through 7 compounds from US11267844B2, “Spirothietane nucleosides” (Janssen Pharmaceutica NV, priority 2017, dated 2022).

One data set addresses HCV polymerase (Hepatitis C virus genotype 1b, UniProt Q9WMX2). In words: Biochemical HCV polymerase inhibition.
For data set [1], the target named is T1, dengue virus NS5 polymerase domain (DENVpol, serotype 2, New Guinea C strain) (Dengue virus type 2, UniProt P14340).
T1 construct: The enzyme activity of dengue virus NS5 polymerase domain
In words: Dengue virus polymerase inhibition assay. The data set is classed as biochemical, dengue virus serotype 2. The method, then: The enzyme activity of dengue virus NS5 polymerase domain (DENVpol, serotype 2, New Guinea C strain) is measured as an incorporation of tritiated NMP into acid-insoluble RNA products. DENVpol assay reactions contain recombinant enzyme, heteropolymeric RNA, about 0.5 μCi tritiated NTP, 0.33 μM of competing cold NTP, 40 mM HEPES (pH 7.5), 3 mM dithiothreitol, and 2 mM MgCl2. Standard reactions are incubated for 3 hours at 30° C., in the presence of increasing concentration of inhibitor. At the end of the reaction, RNA is precipitated with 10% TCA, and acid-insoluble RNA products are filtered on a size exclusion 96-well plate. After washing of the plate, scintillation liquid is added and radiolabeled RNA products are detected according to standard procedures with a Trilux Topcount scintillation counter. The compound concentration at which the enzyme-catalyzed rate is reduced by 50% (IC50) is calculated by fitting the data to a non-linear regression (sigmoidal).

The subject of data set [2] is HCV replicon (NS3-NS5B regions of HCV type 1b) in Huh-7 luc/neo cells. Briefly: HCV replicon assay (Huh-Luc cells, luciferase read-out). The data set is classed as cell-based. To be noted: Hepatitis C virus, Huh-7, 72 h; Table 1A; Huh-Luc replicon cells, 3 days; read-out: HCV Huh-7 (EC50). An excerpt:
The compounds of Formula (I) were examined for activity against HCV in a cellular assay. […] The cellular assay was based on a bicistronic expression construct, as described by Lohmann et al. (1999) Science vol. 285 pp. 110-113 with modifications described by Krieger et al. (2001) Journal of Virology 75: 4614-4624, in a multi-target screening strategy.
In essence, the method was as follows. The assay utilized the stably transfected cell line Huh-7 luc/neo (hereafter referred to as Huh-Luc). This cell line harbors an RNA encoding a bicistronic expression construct comprising the wild type NS3-NS5B regions of HCV type 1b translated from an internal ribosome entry site (IRES) from encephalomyocarditis virus (EMCV), preceded by a reporter portion (FfL-luciferase), and a selectable marker portion (neo^R, neomycine phosphotransferase). The construct is bordered by 5′ and 3′ NTRs (non-translated regions) from HCV genotype 1b. Continued culture of the replicon cells in the presence of G418 (neo^R) is dependent on the replication of the HCV-RNA. The stably transfected replicon cells that express HCV-RNA, which replicates autonomously and to high levels, encoding inter alia luciferase, were used for screening the antiviral compounds.
The replicon cells were plated in 384-well plates in the presence of the test and control compounds which were added in various concentrations. Following an incubation of three days, HCV replication was measured by assaying luciferase activity (using standard luciferase assay substrates and reagents and a Perkin Elmer ViewLux™ ultraHTS microplate imager). Replicon cells in the control cultures have high luciferase expression in the absence of any inhibitor. The inhibitory activity of the compound on luciferase activity was monitored on the Huh-Luc cells, enabling a dose-response curve for each test compound. EC50 values were then calculated, which value represents the amount of the compound required to decrease the level of detected luciferase activity by 50%, or more specifically, the ability of the genetically linked HCV replicon RNA to replicate.
A general note: In antiviral work, replicon cells carry a viral genome segment that copies itself.

Data set [3] has as its system DENV-2/16681/eGFP. In words: Antiviral activity against DENV-2/16681/eGFP in Huh-7 cells (eGFP read-out). To be noted: Dengue virus, DENV2, Huh-7, 72 h, read-out: DENV Huh-7 (EC50, μM). The data set is classed as cell-based, dengue virus serotype 2. The method, then:
(§1) The antiviral activity of the compounds against DENV-2/16681/eGFP was determined in a phenotypic antiviral assay with eGFP read-out, a measure for the amount of virus (TV-WI-03476 and TV-WI-05601). In parallel, cytotoxicity of the compounds was measured using ATPLite™ (PerkinElmer, Waltham, Mass.). The assay was performed in two different cell-lines (Vero and Huh-7) to exclude cell-specific activity of the compound.
(§2) DENV-2/16681/eGFP was produced by the transfection of the in vitro transcribed RNA of plasmid pFK-DVs-G2A (purchased from Prof. R. Bartenschlager, University of Heidelberg, Germany; FIG. 1) into Huh-7 cells (human hepatocarcinoma cells; kindly provided by Prof. R. Bartenschlager) (TV-WI-04247).
(§3) In brief, 2,500 Vero cells (African green monkey kidney cells; European Collection of Cell Cultures [ECACC], Porton Down, UK; catalogue number 84113001) or Huh-7 cells were seeded in 384-well plates containing 9-fold serially diluted test compound. After incubating 24 h at 37° C., Vero and Huh-7 cells were infected with DENV-2/16681/eGFP at a multiplicity of infection (MOI) of 1 and 5, respectively. After 3 days of incubation at 37° C., the viral replication was quantified by measuring eGFP expression in the cells with a laser microscope. The 50% effective concentration (EC50) was defined as the concentration inhibiting 50% of the eGFP expression of the compound-treated DENV-infected cells vs. the untreated DENV-infected cells (virus control), using the cell controls as baseline of eGFP signal (i.e., 0% signal). In the same way, the 90% effective concentration (EC90) was calculated.

The nature of data set [4]: Cytotoxicity in Huh-7 cells (ATPlite cell viability). The data set is classed as cell-based. To be noted: human, Table 1A, read-out: Tox Huh-7 (CC50). The method, then:
as §1
(§4) In parallel, cytotoxic effects of the compounds (50% cytotoxic concentration [CC50] and 90% cytotoxic concentration [CC90]) were evaluated using an ATPlite cell viability luminescence assay (PerkinElmer). To this end, ATPlite was added to the wells according to the supplier's instructions once the eGFP read-out was performed, and the luminescence was measured; a measure directly relating to the number of viable cells. The CC50 was determined as the 50% inhibitory concentration for the luminescent signal in compound-treated DENV-infected cells compared to untreated DENV-infected cells (virus control), using a medium control as baseline of emitted light (i.e., 0% signal).
(In general: In ATP-based viability assays light output follows the ATP content of the culture.)

For data set [5], the system named is DENV-2/16681/eGFP. In words: Antiviral activity against DENV-2/16681/eGFP in Vero cells (eGFP read-out). It counts as cell-based, dengue virus serotype 2. Conditions: Dengue virus, DENV2, Vero, 72 h, read-out: DENV Vero (EC50, μM). The method, then: as §1, §2, §3
The nature of data set [6]: Cytotoxicity in Vero cells (ATPlite cell viability). It counts as cell-based. To be noted: African green monkey, Table 1A, read-out: Tox Vero (CC50). The method, then:
as §1, §4

In a further data set the test system is CHIKV strain S27. Briefly: CHIKV CPE inhibition assay in Huh7 cells. It counts as cell-based. Conditions: Chikungunya virus, Huh-7, 48 h, read-out: CHIKV Huh-7 (EC50, μM). The method, then:
The antiviral activities of the nucleoside analogs against chikungunya virus (CHIKV) were tested using a cell-based high-throughput CPE (cytopathic effect) inhibition assay. In this assay, CHIKV strain S27 and Huh7 cells (a human hepatoma cell line) were employed. The test compounds were prepared in a 9-point fourfold serial dilutions and plated in a 384-well plate. Then, a density of 8000 cells/well and an MOI (Multiplicity of Infection) of 0.25 CHIKV were added to each well. The plates were incubated at 37° C./5% CO2 for 2 days. The antiviral activity of a test compound was measured by addition of an ATPLite™ 1-step kit (PerkinElmer), which measures the ATP levels in live cells protected from viral CPE by a test compound. The cytotoxicity of test compounds was measured in parallel in the absence of virus infection. The readout is luminescence.

Structures are written as SMILES. A value given as a limit tells only on which side of the number the result lay.

HCV polymerase, sequence (Q9WMX2 2420-3010): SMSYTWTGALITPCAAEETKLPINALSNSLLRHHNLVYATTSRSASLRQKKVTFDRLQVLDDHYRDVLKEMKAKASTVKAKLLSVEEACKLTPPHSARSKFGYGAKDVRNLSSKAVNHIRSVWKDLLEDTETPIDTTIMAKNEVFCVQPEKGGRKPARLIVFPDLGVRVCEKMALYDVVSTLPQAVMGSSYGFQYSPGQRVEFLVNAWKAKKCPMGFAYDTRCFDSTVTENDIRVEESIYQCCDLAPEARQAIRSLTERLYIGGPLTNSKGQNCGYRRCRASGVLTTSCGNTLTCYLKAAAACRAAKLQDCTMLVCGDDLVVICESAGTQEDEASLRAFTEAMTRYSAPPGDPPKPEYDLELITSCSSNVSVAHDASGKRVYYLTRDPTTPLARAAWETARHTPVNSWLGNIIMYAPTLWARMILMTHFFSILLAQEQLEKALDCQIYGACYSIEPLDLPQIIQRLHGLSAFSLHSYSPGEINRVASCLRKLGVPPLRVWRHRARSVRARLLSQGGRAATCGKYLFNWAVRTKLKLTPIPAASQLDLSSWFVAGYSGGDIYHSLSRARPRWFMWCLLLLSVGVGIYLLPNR

A word on the IC50: it is the concentration at which inhibition is half-maximal. Read a low IC50 as inhibition by little substance. On to `O=c1ccn([C@@H]2O[C@H](COP(=O)(O)OP(=O)(O)OP(=O)(O)O)[C@@H](O)[C@]23CCS3)c(=O)[nH]1` [Compound 58], for which the 50% inhibitory concentration (IC50) at HCV polymerase is 740 nM; in data set [1] it was 49700 nM.

Turning to `Nc1ccn([C@@H]2O[C@H](COP(=O)(O)OP(=O)(O)OP(=O)(O)O)[C@@H](O)[C@]23CCS3)c(=O)n1` [Compound 59], the values for the half-maximal inhibitory concentration (IC50) (at HCV polymerase; in data set [1]) were 320 nM and 2910 nM, respectively.

Consider `O=c1ccn([C@@H]2O[C@](F)(COP(=O)(O)OP(=O)(O)OP(=O)(O)O)[C@@H](O)[C@]23CCS3)c(=O)[nH]1` [Compound 60], for which the IC50 against HCV polymerase was 690 nM; in data set [1], over 10000 nM.

On to `Nc1ccn([C@@H]2O[C@](F)(COP(=O)(O)OP(=O)(O)OP(=O)(O)O)[C@@H](O)[C@]23CCS3)c(=O)n1` [Compound 61], for which the IC50 on HCV polymerase came out at 160 nM; in data set [1], 2440 nM.

With `[N-]=[N+]=N[C@]1(COP(=O)(O)OP(=O)(O)OP(=O)(O)O)O[C@@H](n2ccc(=O)[nH]c2=O)[C@@]2(CCS2)[C@@H]1O` [Compound 62], on HCV polymerase, half-maximal inhibition (IC50) required 560 nM.

With `Nc1nc2c(ncn2[C@@H]2O[C@H](COP(=O)(O)OP(=O)(O)OP(=O)(O)O)[C@@H](O)[C@]23CCS3)c(=O)[nH]1` [Compound 63], the 50% inhibitory concentration (IC50) is 180 nM against HCV polymerase and over 10000 nM in data set [1].

One may read the EC50 as the midpoint of the concentration-response curve. The CC50 is the concentration at which the toxic effect on the cells reaches its halfway point. As for `Nc1ncnc2c1ncn2[C@@H]1O[C@H](CO)[C@@H](O)[C@]12CCS2` [Compound 67, (4R,5R,7R,8R)-5-(6-amino-9H-purin-9-yl)-7-(hydroxymethyl)-6-oxa-1-thiaspiro[3.4]octan-8-ol], the EC50 was over 50000 nM in data set [2], over 50 µM with DENV-2/16681/eGFP [3], over 50 µM with DENV-2/16681/eGFP [5] and over 50 µM in the data set with CHIKV strain S27. Also, the 50% cytotoxic concentration (CC50) in data set [4] and in data set [6] was over 50000 nM each time.
